Source: US20140050805A1, “COMPOSITION, GLUCOSE METABOLISM-IMPROVING AGENT, AND METHOD FOR IMPROVING GLUCOSE METABOLISM” (Lion Corporation, priority 2011, published 2014)

Experiments:
[1] = tested on: Hyperglycemia model mice (TSOD mouse); experiment: Blood glucose level in hyperglycemia model mice (TSOD) bred on mixed feed for 5 days; type: in vivo
Description: Mixed feeds of Examples 1 to 3 and Comparative Examples 1 to 4 were prepared by mixing a commercially available feed (trade name: D12450B, product of Research Diet Co.) with Panax notoginseng powder (product of MATSUURA YAKUGYO CO., LTD.) and at least one of Piper longum extract (trade name, LONG PEPPER EXTRACT POWDER MF, composition: 10% by mass of a hot water extract of Piper longum, 90% by mass of dextrin, product of MARUZEN PHARMACEUTICALS CO., LTD.) and vitamin B1 nitrate (product of Wako Pure Chemical Industries, Ltd.) in respective amounts shown in the following Table 1. The above commercially available feed only was used in Comparative Example 4.
Hyperglycemia model mice (TSOD mouse (obtained from Institute for Animal Reproduction), 14 weeks old, 5 mice/group) were given ad libitum each of the mixed feeds of Examples 1 to 3 and Comparative Examples 1 to 4 to breed them for 5 days.
The blood glucose levels at 10 a.m. were measured by the below-described method, before giving the mixed feed to the hyperglycemia model mice (before the start of breeding with the mixed feed) and after giving the mixed feed to the hyperglycemia model mice for 5 days (after the breeding with the mixed feed). A significance test was performed using the Dunnett's multiple test.
Also, the difference between the blood glucose levels before the start of breeding with the mixed feed and after the breeding with the mixed feed (Δblood glucose level) was calculated using the following calculation formula.
Δ Blood glucose level (mg/dL)=Blood glucose level before the start of breeding with the mixed feed (mg/dL)−Blood glucose level after the breeding with the mixed feed (mg/dL)
(§1) The blood glucose level was measured with a simplified blood glucose level measuring system (trade name: CYCLIC GB SENSOR, product of Sanko Junyaku Co., Ltd.).

[2] = tested on: Hyperglycemia model mice (KKAy mice); experiment: Blood glucose level in hyperglycemia model mice (KKAy) bred on high fat diet mixed feed for 5 days; type: in vivo, mouse
Description: as §1
Mixed feeds of Examples 4 to 7 and Comparative Examples 6 to 8 were prepared by mixing a commercially available high fat diet (trade name: Quick Fat, product of CLEA Japan, Inc.) with the acid-treated Panax notoginseng product produced in Production Example 1 and at least one of Piper longum extract (trade name, LONG PEPPER EXTRACT POWDER MF, composition: 10% by mass of a hot water extract of Piper longum, 90% by mass of dextrin, product of MARUZEN PHARMACEUTICALS CO., LTD.) and vitamin B1 nitrate (product of Wako Pure Chemical Industries, Ltd.) in respective amounts shown in the following Table 2. The mixed feed of Example 8 was prepared by using Panax notoginseng powder (product of MATSUURA YAKUGYO CO., LTD.) instead of the acid-treated Panax notoginseng product of Example 4. The above commercially available high fat diet only was used in Comparative Example 5.
Hyperglycemia model mice (KKAy mice (obtained from CLEA Japan, Inc.), 20 weeks old, 5 mice/group) were given ad libitum each of the mixed feeds of Examples 4 to 8 and Comparative Examples 5 to 8 to breed them for 5 days.
The blood glucose levels at 10 a.m. were measured in the same manner as in Example 1, before giving the mixed feed to the hyperglycemia model mice (before the start of breeding with the mixed feed) and after giving the mixed feed to the hyperglycemia model mice for 5 days (after the breeding with the mixed feed). A significance test was performed using the Dunnett's multiple test.

[3] = level before minus level after 5 days of mixed feed

Compound | Blood glucose levels Before the start of breeding with the mixed feed ([1]; 14 weeks old, 10 a.m., average, baseline before mixed feed) [mg/dL] | Δ Blood glucose level [1, 3] [mg/dL] | Blood glucose levels After the breeding with the mixed feed ([1]; mixed feed ad libitum for 5 days, 10 a.m., average) [mg/dL] | Blood glucose levels Before the start of breeding with the mixed feed ([2]; 20 weeks old, 10 a.m., average, baseline before mixed feed) [mg/dL] | Blood glucose levels After the breeding with the mixed feed ([2]; high fat diet mixed feed ad libitum for 5 days, 10 a.m., average) [mg/dL] | Δ Blood glucose level [2, 3] [mg/dL]
Cc1ncc(C[n+]2csc(CCO)c2C)c(N)n1.O=[N+]([O-])[O-] [compound 2, vitamin B1 nitrate] | 389.2 | 43.9 | 345.3 |  |  | 
Cc1ncc(C[n+]2csc(CCO)c2C)c(N)n1.O=[N+]([O-])[O-] [compound 8, vitamin B1 nitrate] |  |  |  | 551 | 501 | 50
